The target of the assay is T1, mGluR5 binding site (Rattus norvegicus, UniProt P31424).
T1 construct: from tissue; host or cells: cortex of adult male Sprague-Dawley rats, membrane preparation
T1 sequence (P31424 21-1203): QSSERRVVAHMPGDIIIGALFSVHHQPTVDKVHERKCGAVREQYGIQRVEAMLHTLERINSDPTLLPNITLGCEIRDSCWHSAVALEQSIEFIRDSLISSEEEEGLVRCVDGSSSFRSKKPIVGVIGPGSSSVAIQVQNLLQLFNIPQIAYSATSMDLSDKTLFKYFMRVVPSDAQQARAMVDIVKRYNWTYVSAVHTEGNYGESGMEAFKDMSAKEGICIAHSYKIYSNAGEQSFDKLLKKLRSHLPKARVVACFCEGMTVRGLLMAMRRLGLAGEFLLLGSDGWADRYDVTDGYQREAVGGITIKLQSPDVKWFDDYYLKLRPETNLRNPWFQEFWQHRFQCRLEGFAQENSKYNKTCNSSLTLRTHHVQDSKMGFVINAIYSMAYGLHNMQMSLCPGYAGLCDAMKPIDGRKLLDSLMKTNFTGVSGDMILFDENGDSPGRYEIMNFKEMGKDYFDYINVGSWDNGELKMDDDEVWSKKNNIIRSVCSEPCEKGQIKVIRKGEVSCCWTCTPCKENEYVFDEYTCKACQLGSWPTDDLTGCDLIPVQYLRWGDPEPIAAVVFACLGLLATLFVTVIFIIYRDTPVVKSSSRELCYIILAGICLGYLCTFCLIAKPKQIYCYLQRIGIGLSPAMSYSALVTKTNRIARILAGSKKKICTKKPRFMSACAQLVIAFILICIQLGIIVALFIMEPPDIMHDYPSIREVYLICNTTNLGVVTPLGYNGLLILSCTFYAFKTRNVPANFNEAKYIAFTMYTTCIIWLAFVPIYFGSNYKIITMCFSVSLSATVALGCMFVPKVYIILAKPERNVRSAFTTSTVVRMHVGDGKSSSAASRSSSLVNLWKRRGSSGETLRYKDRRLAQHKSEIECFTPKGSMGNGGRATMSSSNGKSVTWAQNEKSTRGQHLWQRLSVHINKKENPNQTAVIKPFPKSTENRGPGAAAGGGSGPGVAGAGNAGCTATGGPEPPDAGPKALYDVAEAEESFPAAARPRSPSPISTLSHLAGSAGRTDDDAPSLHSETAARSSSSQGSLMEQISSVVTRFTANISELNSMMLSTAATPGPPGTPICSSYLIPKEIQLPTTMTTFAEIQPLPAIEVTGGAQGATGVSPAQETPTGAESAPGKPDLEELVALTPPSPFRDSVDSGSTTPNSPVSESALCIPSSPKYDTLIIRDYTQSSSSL
Kind of assay: [3H]-M-MPEP displacement studies on rat cortical membranes. The conditions noted are these: Table A3, [3H]-M-MPEP 2 nM, 4°C for 1 h, median, read-out: Ki (MMPEP). How it is done: Tissue preparation is performed according to Foster & Wong (Br. J. Pharmacol., 1987, 91, 403-409) with some modifications. Anaesthetised male Sprague-Dawley rats (200-250 g, Janvier, Le Genest-Isle, France) are decapitated and their brains are removed rapidly. The cortex is dissected out and processed as described by Parsons, et al. (J. Pharmacol. Exp. Ther., 1997, 283(3): 1264-1275). For isolation of the cell membranes, the cortices are homogenized in 20 volumes of ice-cold 0.32 M sucrose (Sigma-Aldrich, Taufkirchen, Germany) using a glass-Teflon homogenizer. The homogenate is centrifuged at 1000 x g for 10 minutes, the pellet is discarded and the supernatant centrifuged at 20,000 x g for 20 minutes. The resulting pellet is resuspended in 20 volumes of distilled water and centrifuged for 20 minutes at 8000 x g. The supernatant and the buffy coat are then centrifuged six times (48,000 x g for 20 minutes) in the presence of 5 mM Tris-HCl, pH 7.5. All centrifugation steps are carried out at 4°C. After resuspension in 5 volumes of 5 mM Tris-HCl, pH 7.5, the membrane suspension is frozen rapidly at -80°C.
On the day of assay, the membrane suspensions are thawed, centrifuged (48,000 x g for 20 minutes) and then resuspended in 50 mM Tris-HCl, pH 7.5 (assay buffer). The amount of protein in the final membrane preparation is determined according to the method of Lowry, et al. (J. Biol. Chem., 1951, 193, 256-275). The final concentration used for our studies is 400 µg / ml.
The Tecan robotic system designed for binding assays is loaded with the membrane solution, a 96 well stock plate containing the solutions for bound control (buffer/DMSO 10%), unlabeled MPEP (10 µM) for evaluation of non-specific binding, all compounds to be tested (at 20-fold concentrations), various empty 96-well plates for dilutions and the final assay plates, as well as a 96-well plate filled with the radioligand.
Before performing displacement studies, saturation experiments are performed to determine the equilibrium dissociation constant (Kd, Cheng and Prussoff, Biochem. Pharmacol., 1973, 22: 3099-3108) of [^3H]-M-MPEP, which is a parameter for the affinity of the radioligand to the binding site. On the basis of the saturation experiments, a final [^3H]-M-MPEP concentration of 2 nM was selected.
Firstly, the assay plates are loaded with membrane solution and are shaken at 4°C. The mother plates were then prepared by pipetting the compounds (n = 5) into assay buffer/10% DMSO to obtain the desired final concentrations. After transferring radioligand into the assay plates, the compounds are added (including the non-specific binding control containing MPEP). The final DMSO concentration is always 1 %. The assay plates are incubated and shaken at 4°C for 1 h, before the mixture is exhausted as rapidly as possible via a vacuum manifold using the Multiscreen HTS glass fibre (type B) high flow filter plates (Millipore, Schwalbach, Germany) under a constant vacuum of 450 mbar. The membranes are washed four times with cold assay buffer (100 µL). 50 µL of Ultima Gold scintillation cocktail (PerkinElmer) is added to the wet filter plates and incubated at rt overnight before counting the disintegration per minutes using a liquid scintillation counter (MicroBeta, PerkinElmer).
For the evaluation of the test compound binding affinity to the mGluR5 binding site and its potency to displace [^3H]-M-MPEP, the measured radioactivity of the radioligand alone was set as 100% bound control and the non-specific binding of the radioligand represented the 0% control. The residual radioactivity after displacement of the test compound was then corrected with respect to the set controls. Data are given as median IC50 and Ki, respectively.
`CCCN1CCO[C@@H]2c3cc(C#Cc4cccc(C)c4)cnc3CC[C@@H]21` (racemic) [Example 21, (rac)-cis-4-Propyl-9-(m-tolylethynyl)-3,4,4a,5,6,10b-hexahydro-2H-[1,4]oxazino[2,3-f]quinoline]: the Ki stood at 1720 nM.

Take `COC(=O)N1CC[C@H]2CCc3ncc(C#Cc4ccccc4)cc3[C@H]21` (racemic) [Example 29, (rac)-cis-Methyl 8-(phenylethynyl)-2,3,3a,4,5,9b-hexahydro-1H-pyrrolo[2,3-f]quinoline-1-carboxylate]: the Ki is 289 nM.

Consider `CCCN1CC2(CCCc3ncc(C#Cc4cccc(C)c4)cc32)OC1=O` (racemic) [Example 64, (rac)-3-Propyl-3'-(m-tolylethynyl)-7',8'-dihydro-6'H-spiro[oxazolidine-5,5'-quinolin]-2-one], for which the Ki was determined as 399 nM.

Take `CCCN1CC2(CCCc3ncc(C#Cc4cccc(F)c4)cc32)OC1=O` (racemic) [Example 66, (rac)-3'-((3-Fluorophenyl)ethynyl)-3-propyl-7',8'-dihydro-6'H-spiro[oxazolidine-5,5'-quinolin]-2-one]: the Ki was found to be 857 nM.

Consider `COC1CCCc2ncc(C#Cc3ccccc3)cc21` (single isomer, unassigned) [Example 2, 5-Methoxy-3-(phenylethynyl)-5,6,7,8-tetrahydroquinoline], for which the Ki was found to be 204 nM.

As for `CCCN1CCO[C@@H]2c3cc(C#Cc4ccccc4)cnc3CC[C@@H]21` (single isomer, unassigned) [Example 17, cis-9-(Phenylethynyl)-4-propyl-3,4,4a,5,6,10b-hexahydro-2H-[1,4]oxazino[2,3-f]quinoline], the Ki amounted to 3620 nM.

Consider `CC(C)C(=O)N1CCc2ncc(C#Cc3ccccc3)cc2C1` [Example 33, 2-Methyl-1-(3-(phenylethynyl)-7,8-dihydro-1,6-naphthyridin-6(5H)-yl)propan-1-one], for which the inhibition constant Ki amounted to 395 nM.

In the case of `CCOC(=O)N1CCc2ncc(C#Cc3ccccc3)cc2C1` [Example 40, Ethyl 3-(phenylethynyl)-7,8-dihydro-1,6-naphthyridine-6(5H)-carboxylate], the Ki turned out to be 56.5 nM.

The values are drawn from EP2650284A1, “Heterocyclic derivatives as metabotropic glutamate receptor modulators” (Merz Pharma GmbH & Co. KGaA, priority 2012, dated 2013).
